Experimental data published in patent US20100008965A1, “BIOCOMPATIBLE MEDICAL PRODUCTS HAVING ENHANCED ANTI-THROMBOGENIC PROPERTIES” (priority 2008, published 2010).

Experiments:
HCAEC [1] = test: HCAEC cell binding assay to immobilized fibronectin polypeptides (crystal violet); type: cell-based, human; details: immobilized, 8 h
Protocol: (§1) Human coronary artery endothelial cell (HCAEC) and human umbilical vein endothelial cell (HUVEC) primary human cells were obtained (Cambrex Corporation, East Rutherford, N.J.) and maintained according to the manufacturer's instructions at 37° C. and 5% CO2. HCAEC were grown in microvascular endothelial cell medium (EBM-2 MV, Cambrex) supplemented with 5% fetal bovine serum, 0.1% human epidermal growth factor, 0.04% hydrocortisone, 0.1% vascular endothelial growth factor, 0.4% human fibroblast growth factor-B, 0.1% R^3-insulin-like growth factor-1, 0.1% ascorbic acid, and 0.1% gentamicin and amphotericin-B (GA-1000). HUVEC were grown in endothelial cell medium (EBM, Cambrex) supplemented with 2% fetal bovine serum, 0.4% bovine brain extract, 0.1% human epidermal growth factor, 0.1% hydrocortisone, and 0.1% gentamicin and amphotericin-B (GA-1000). HCAEC and HUVEC were subcultured at 90-95% confluence using 0.05% trypsin-EDTA (Invitrogen, Carlsbad, Calif.) and used for experiments between passages 3-7 (HUVEC) or 5-11 (HCAEC).
HCAEC or HUVEC cell binding assays to immobilized recombinant fibronectin polypeptides were performed in order to ascertain which polypeptide(s) maximally support(s) alpha-4 integrin-mediated cell adhesion. Connecting Segment-1 (SEQ ID NO:1), EILDV (SEQ ID NO:2), RGDS (SEQ ID NO:3) (positive control), RGES (SEQ ID NO:4) (negative control), and EILEVPST (SEQ ID NO:5) (negative control) and were immobilized by drying overnight at room temperature in Immobilizer™ Amino 96-well microplates (Nalge Nunc International, Rochester, N.Y.). RGES, EILDV, and EILEVPST were incubated at a molar equivalent concentration equal to 200 μg RGDS per well. CS-1 was incubated at 50 μg/well. On a molar basis per well, this equates to approximately twenty-fold less CS-1 relative to RGDS. […] Cells were manually counted, and their concentration adjusted to yield a total cell population of 5×10^4 cells/well. […] Spectrometric absorbance values were read at 562 nm at room temperature using a ThermoMax microplate reader (Molecular Devices Corporation, Sunnyvale, Calif.).

HCAEC [2] = test: alpha-4 integrin function blocking cell binding assay, HCAEC; type: cell-based, human; details: 0.5 μg antibody per 5×10^4 cells, 8 h; CS-1 p<0.05
Protocol: (§2) To verify that HCAEC or HUVEC adhesion to immobilized CS-1 polypeptides is specifically mediated via alpha-4-containing integrin heterodimers, alpha-4 integrin function blocking cell binding assays were performed. RGDS, EILEVPST, and CS-1 polypeptides were immobilized in Immobilizer™ Amino 96-well microplates. Microplate wells were prepared as described above. Trypsinized HCAEC or HUVEC suspensions were manually counted, aliquoted into two groups, and incubated for one hour on ice with one of the following antibodies at a concentration of 0.5 μg antibody per 5×10^4 cells: (a) mouse monoclonal IgG1 anti-human alpha-4-integrin (CD49d, clone P1H4) (Chemicon), or (b) mouse monoclonal IgG1 anti-human isotype-matched control (R&D Systems). Next, 5×10^4 cells suspended in their respective basal medium were added to wells containing immobilized peptide polypeptides and incubated for eight hours at 37° C. and a 5% CO2 atmosphere. Adherent cells were analyzed via crystal violet staining as described previously.
To differentiate whether HCAEC and HUVEC adhere to CS-1 peptides via an alpha-4 integrin-specific interaction, HCAEC and HUVEC adhesion assays to CS-1, RGDS, and EILEVPST peptides were performed following one hour endothelial cell incubations with either an alpha-4 integrin function blocking antibody or an IgG isotype-matched control antibody. The EILEVPST peptide served as the negative control cell adhesion peptide. The RGDS peptide served as an additional control. Endothelial cell adhesion to RGDS is primarily mediated by alpha-5-beta-1 integrins. Therefore, alpha-4 integrin function blocking should not have a significant effect on adhesion to RGDS. Thus, specificity of HCAEC and HUVEC binding to CS-1 via alpha-4 integrins could be tested.

HUVEC [3] = test: HUVEC cell binding assay to immobilized fibronectin polypeptides (crystal violet); type: cell-based, human; details: 8 h
Protocol: as §1, with “HCAEC and HUVEC were subcultured at 90-95% confluence using 0.05% trypsin-EDTA (Invitrogen, Carlsbad, Calif.) and used for experiments between passages 3-7 (HUVEC) or 5-11 (HCAEC).” left out
HCAEC or HUVEC cell binding assays to immobilized recombinant fibronectin polypeptides were performed in order to ascertain which polypeptide(s) maximally support(s) alpha-4 integrin-mediated cell adhesion. […] Cells were manually counted, and their concentration adjusted to yield a total cell population of 5×10^4 cells/well. […] Spectrometric absorbance values were read at 562 nm at room temperature using a ThermoMax microplate reader (Molecular Devices Corporation, Sunnyvale, Calif.).

HUVEC [4] = test: alpha-4 integrin function blocking cell binding assay, HUVEC; type: cell-based, human; details: 0.5 μg antibody per 5×10^4 cells, 8 h; CS-1 p=0.1
Protocol: as §2
To differentiate whether HCAEC and HUVEC adhere to CS-1 peptides via an alpha-4 integrin-specific interaction, HCAEC and HUVEC adhesion assays to CS-1, RGDS, and EILEVPST peptides were performed following one hour endothelial cell incubations with either an alpha-4 integrin function blocking antibody or an IgG isotype-matched control antibody. […]

[5] = biological target: human alpha-4 integrin (CD49d), alpha-4-containing integrin heterodimers on endothelial cells (human) (UniProt P13612); test: flow cytometry, FITC-BU49 on fixed human foreskin fibroblasts, against isotype control
[6] = biological target: human alpha-4 integrin (CD49d), alpha-4-containing integrin heterodimers on endothelial cells (human) (UniProt P13612); test: flow cytometry, FITC-BU49 on fixed HUVEC, against isotype control
[7] = biological target: human alpha-4 integrin (CD49d), alpha-4-containing integrin heterodimers on endothelial cells (human) (UniProt P13612); test: flow cytometry, FITC-BU49 on fixed HCAEC, against isotype control
human platelets [8] = test: 51Cr-labeled platelet adhesion to immobilized ECM proteins under shear flow; type: cell-based; details: 16.5 dyne/cm^2, one hour; non-activated and thrombin-activated; versus CS-1 and glass control
Protocol: Characterization of human platelet adhesion to immobilized extracellular matrix proteins was performed by subjecting non-activated or thrombin-activated human platelets to a shear stress τ=16.5 dyne/cm^2 for one hour using a peristaltic pump-driven parallel plate fluid flow system. Washed human platelets were isolated as described above, resuspended in platelet washing buffer (PWB), and adjusted to a final concentration of approximately 0.5-1.0×10^9 platelets/ml. The platelet suspensions were incubated for thirty minutes at room temperature with 25 μCi/ml Na2^51CrO4 (GE Healthcare, Piscataway, N.J.). ^51Cr-labeled platelets were centrifuged at 2000×g for three minutes at room temperature and resuspended in 20 ml fresh frozen plasma previously thawed and warmed to 37° C. The ^51Cr-platelet/plasma solution was distributed equally (5 ml) into each of four reservoirs containing an additional 50 ml of 37° C. human plasma. For thrombin-activated platelets, 1 U thrombin (Sigma) per 3 ml platelet suspension was added immediately prior to aliquoting the ^51Cr-platelet/plasma solution into the flow loop reservoirs.
75×38×1 mm glass microscope slides were coated with ECM proteins as described above. Slides were incubated for one hour at room temperature with a 0.25% (w/v) sterile-filtered BSA solution. […]

human platelets [9] = test: DiOC6-labeled platelet adhesion imaging under shear flow; type: cell-based; details: 16.5 dyne/cm^2, one hour
Protocol: To visualize shear stress-mediated platelet adhesion to the immobilized ECM proteins, non-radiolabeled non-activated or thrombin-activated human platelets were prepared as described above, but were first incubated for ten minutes at room temperature with a 10 μM DiOC6 (dihexaoxacarbocyanine iodide) (Sigma) solution prior to being subjected to flow for one hour at a shear stress τ=16.5 dyne/cm^2. Post-flow, all slides were rinsed twice with PBS and fixed with 4% (w/v) paraformaldehyde. Platelet adhesion was visualized on a Nikon Diaphot 200 inverted epifluorescence microscope (Nikon) at 488 nm using a 40× objective. Images were captured using an Olympus DP70 digital camera (Olympus America, Inc.) and analyzed using the Adobe® Photoshop® software package version 6.0 (Adobe Systems Incorporated, San Jose, Calif.).

[10] = biological target: human alpha-4 integrin (CD49d), alpha-4-containing integrin heterodimers on endothelial cells (human, UniProt P13612 34-1032); test: cell-based or functional assay
human alpha-4 integrin (CD49d), alpha-4-containing integrin heterodimers on endothelial cells, sequence (P13612 34-1032, one chain of several): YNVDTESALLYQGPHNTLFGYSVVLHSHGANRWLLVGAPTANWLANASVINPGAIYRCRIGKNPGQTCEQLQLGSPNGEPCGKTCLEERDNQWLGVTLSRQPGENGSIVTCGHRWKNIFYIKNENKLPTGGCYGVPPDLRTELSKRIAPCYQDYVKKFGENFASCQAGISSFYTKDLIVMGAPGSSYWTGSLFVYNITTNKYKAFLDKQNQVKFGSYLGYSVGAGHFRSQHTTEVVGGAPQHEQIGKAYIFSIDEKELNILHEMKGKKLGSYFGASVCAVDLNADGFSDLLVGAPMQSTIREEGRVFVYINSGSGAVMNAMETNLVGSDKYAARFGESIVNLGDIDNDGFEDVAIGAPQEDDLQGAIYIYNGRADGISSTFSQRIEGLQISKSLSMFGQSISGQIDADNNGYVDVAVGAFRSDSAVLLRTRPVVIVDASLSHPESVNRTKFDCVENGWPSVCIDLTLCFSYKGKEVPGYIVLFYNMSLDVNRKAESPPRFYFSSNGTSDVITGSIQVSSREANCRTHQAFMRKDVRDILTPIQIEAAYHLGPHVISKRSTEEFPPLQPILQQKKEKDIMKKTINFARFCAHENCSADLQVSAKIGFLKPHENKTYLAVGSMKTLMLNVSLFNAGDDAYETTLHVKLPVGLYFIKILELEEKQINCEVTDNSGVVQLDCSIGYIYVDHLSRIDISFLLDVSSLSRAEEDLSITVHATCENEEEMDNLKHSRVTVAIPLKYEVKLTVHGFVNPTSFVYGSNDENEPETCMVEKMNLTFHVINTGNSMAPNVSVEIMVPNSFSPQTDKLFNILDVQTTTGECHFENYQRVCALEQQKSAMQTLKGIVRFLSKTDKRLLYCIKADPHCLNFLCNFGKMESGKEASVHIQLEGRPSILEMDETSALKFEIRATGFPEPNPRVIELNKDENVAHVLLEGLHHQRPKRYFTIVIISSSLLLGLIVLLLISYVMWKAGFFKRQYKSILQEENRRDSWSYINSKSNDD

human alpha-4 integrin (CD49d), alpha-4-containing integrin heterodimers on endothelial cells (human), sequence (P13612 34-1032, one chain of several): as above

EILDV (listed as Homo sapiens) [fibronectin IIICS peptide]
HCAEC adhesion compared with RGES control (HCAEC [1]): not statistically different than the RGES control

EILEVPST (listed as Homo sapiens) [alpha-4 integrin-mediated negative control peptide]
HCAEC adhesion compared with RGES control (HCAEC [1]): essentially equivalent | difference in HCAEC adhesion between IgG isotype control and alpha-4 integrin blocking antibody treated cells (HCAEC [2]): not statistically significant | HUVEC adhesion compared with RGES control (HUVEC [3]): essentially equivalent | difference in HUVEC adhesion between IgG isotype control and alpha-4 integrin blocking antibody treated cells (HUVEC [4]): not statistically significant

FITC-conjugated mouse monoclonal IgG1 anti-human alpha-4 integrin (CD49d, clone BU49) (Chemicon International) (antibody)
percent of cell population positive [5]: 75% | percent of cell population positive [6]: 10% | percent of cell population positive [7]: 40%

RGDS (listed as Homo sapiens) [integrin-mediated cell adhesion peptide, positive control]
difference in HCAEC adhesion between IgG isotype control and alpha-4 integrin blocking antibody treated cells (HCAEC [2]): not statistically significant | difference in HUVEC adhesion between IgG isotype control and alpha-4 integrin blocking antibody treated cells (HUVEC [4]): not statistically significant

type I human collagen: human type I collagen (Sigma), extracellular matrix protein
flowed platelet binding (51Cr), both states of activation (human platelets [8]): significantly increased binding | non-activated platelet adhesion and thrombus formation (DiOC6 images) (human platelets [9]; non-activated platelets): quite vigorous, with clear evidence of multiple organized thrombi | thrombin-activated platelet adhesion and thrombus formation (DiOC6 images) (human platelets [9]; platelets activated prior to flow): mimicked the non-activated counterparts

DELPQLVTLPHPNLHGPEILDVPST
HCAEC adhesion to immobilized peptide, fold relative to control peptide RGES (crystal violet, A562) [10]: 1.6 fold | HUVEC adhesion to immobilized peptide, fold relative to control peptide RGES (crystal violet, A562) [10]: ~4 fold | percent more of the total HCAEC population adhered, relative to RGES [10]: ~20% | percent more of the total HUVEC population adhered, relative to RGES [10]: ~25%
